Assay results published in paper PMC4594923, “Food Polyphenols Fail to Cause a Biologically Relevant Reduction of COX-2 Activity” (PLoS ONE, 2015).
Marks after values point to notes of the source that are not given here.

How the values were obtained:
[1] = biological target: T1, ovine recombinant COX–1 (Ovis aries, UniProt P05979); assay: cell-free COX–1 enzyme assay (PGE2 formation, LC-MS); assay type: biochemical; parameters: purchased Cayman Chemicals/ Biomol, Hamburg, Germany
T1 sequence (P05979 25-600): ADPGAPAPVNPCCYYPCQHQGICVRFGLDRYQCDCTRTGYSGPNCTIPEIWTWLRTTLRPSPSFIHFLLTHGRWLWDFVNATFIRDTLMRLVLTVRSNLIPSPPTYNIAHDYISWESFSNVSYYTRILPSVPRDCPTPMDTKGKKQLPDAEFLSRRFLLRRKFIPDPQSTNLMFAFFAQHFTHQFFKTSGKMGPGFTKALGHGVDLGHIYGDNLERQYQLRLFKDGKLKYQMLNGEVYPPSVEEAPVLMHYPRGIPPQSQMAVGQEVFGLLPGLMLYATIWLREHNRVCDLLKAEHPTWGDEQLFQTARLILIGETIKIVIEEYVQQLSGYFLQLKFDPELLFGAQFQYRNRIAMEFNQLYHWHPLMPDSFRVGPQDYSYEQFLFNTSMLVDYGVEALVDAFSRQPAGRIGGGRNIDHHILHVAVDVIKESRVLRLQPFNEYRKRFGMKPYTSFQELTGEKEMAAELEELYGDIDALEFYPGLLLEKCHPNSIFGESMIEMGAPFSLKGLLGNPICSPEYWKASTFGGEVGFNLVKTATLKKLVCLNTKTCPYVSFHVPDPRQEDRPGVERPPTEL

[2] = system: arachidonic acid (AA) cascade; assay: liver tissue oxylipin/PG levels in LPS induced sepsis in mice; assay type: in vivo, C57BL/6N mice; details: liver tissue 24 h after LPS treatment;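 further: male C57BL/6N mice pretreated i.p. with polyphenols at 100 mg/kg bw or vehicle before LPS, liver oxylipins measured by LC-MS after solid-phase extraction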
Description: Twelve week old male C57BL/6N mice (Charles River, Sulzfeld, Germany) were used for all experiments. C57BL/6 male mice (H2^b, 11–13 weeks of age) were obtained from Charles River (Sulzfeld, Germany). Animals were cared for in accordance with the institution’s guidelines for experimental animals and with the guidelines of the American Physiological Society. […] Mice were monitored closely and if they appeared compromised (i.e. inactivity, no intake of food or water) after compound or LPS injection the experiment was terminated.
Oxylipin levels were analyzed in plasma and tissues by LC-MS following SPE extraction of 200 μl plasma or tissue homogenate (50 mg) on Chromabond C18 ec cartridges (Machery-Nagel, Düren, Germany) [19].
GraphPad Prism 5.0 (GraphPad Software, San Diego, USA) was used for data analysis, the fitting of dose response curves and calculation of the IC50 values. Statistical differences were determined by Dunnetts test (LPS vs. other groups).

[3] = system: COX–2; details: cited from earlier work

Structure (SMILES): O=c1c(-c2ccc(O)cc2)coc2cc(O)cc(O)c12 [Genistein, genistein]
- effect on COX–1 dependent PGE2 formation, cell-free enzyme assay [1]: no effect
- IC50 (95% CI), COX–1 enzyme assay ([1]; calculated based on PGE2, n = 3): no effect (up to 30 μM)
- 4,5-DiHDPE concentration ([2]; mean): 64 nM
- 4-HDHA concentration ([2]; mean): 14 nM
- 5(6)-EpETrE concentration ([2]; mean): 90 nM
- 5,6-DiHETE concentration ([2]; mean): < 0.30 nM
- 5,6-DiHETrE concentration ([2]; mean): 6.3 nM
- 5-HEPE concentration ([2]; mean): 2.7 nM
- 5-HETE concentration ([2]; mean): 2.7 nM
- 5-iPF2α concentration ([2]; mean): < 1.0 nM
- 5-oxo-ETE concentration ([2]; mean): 19 nM
- 6-keto-PGF1α concentration ([2]; mean): 74 nM
- 7,8-DiHDPE concentration ([2]; mean): 6.3 nM
- 7-HDHA concentration ([2]; mean): 4.4 nM
- 8(9)-EpETE concentration ([2]; mean): 2.5 nM
- 8(9)-EpETrE concentration ([2]; mean): 20 nM
- 8,9-DiHETE concentration ([2]; mean): 2.6 nM
- 8,9-DiHETrE concentration ([2]; mean): 12 nM
- 8,15-DiHETE concentration ([2]; mean): 0.88 nM
- 8-HDHA concentration ([2]; mean): 25^* nM
- 8-HEPE concentration ([2]; mean): 1.2 nM
- 8-HETE concentration ([2]; mean): 10 nM
- 8-iPF2α concentration ([2]; mean): 3.0^* nM
- 9(10)-EpODE concentration ([2]; mean): 12 nM
- 9(10)-EpOME concentration ([2]; mean): 130 nM
- 9(10)-Epoxystearic acid concentration ([2]; mean): 82 nM
- 9,10,13-TriHOME concentration ([2]; mean): 8.6^* nM
- 9,10-DiHODE concentration ([2]; mean): 7.6 nM
- 9,10-DiHOME concentration ([2]; mean): 82 nM
- 9,10-Dihydroxystearic acid concentration ([2]; mean): 64 nM
- 9,12,13-TriHOME concentration ([2]; mean): 64 nM
- 9-HETE concentration ([2]; mean): 6.2 nM
- 9-HODE concentration ([2]; mean): 550 nM
- 9-HOTrE concentration ([2]; mean): 9.9 nM
- 9-oxo-ODE concentration ([2]; mean): 160 nM
- 10(11)-EpDPE concentration ([2]; mean): 33^* nM
- 10,11-DiHDPE concentration ([2]; mean): 11 nM
- 10-HDHA concentration ([2]; mean): 7.6 nM
- 11(12)-EpETE concentration ([2]; mean): 5.1^† nM
- 11(12)-EpETrE concentration ([2]; mean): 51 nM
- 11,12-DiHETE concentration ([2]; mean): 2.9 nM
- 11,12-DiHETrE concentration ([2]; mean): 22 nM
- 11-HDHA concentration ([2]; mean): 7.0 nM
- 11-HETE concentration ([2]; mean): 35 nM
- 12(13)-EpODE concentration ([2]; mean): 5.7 nM
- 12(13)-EpOME concentration ([2]; mean): 110 nM
- 12,13-DiHODE concentration ([2]; mean): 5.7 nM
- 12,13-DiHOME concentration ([2]; mean): 210 nM
- 12-HEPE concentration ([2]; mean): 39 nM
- 12-HETE concentration ([2]; mean): 150 nM
- 13(14)-EpDPE concentration ([2]; mean): 27^* nM
- 13,14-DiHDPE concentration ([2]; mean): 15 nM
- 13,14-dihydro-15-keto-PGE1 concentration ([2]; mean): 0.61 nM
- 13,14-dihydro-15-keto-PGF2α concentration ([2]; mean): 8.2^* nM
- 13-HDHA concentration ([2]; mean): 16^† nM
- 13-HODE concentration ([2]; mean): 530 nM
- 13-HOTrE concentration ([2]; mean): 18 nM
- 13-oxo-ODE concentration ([2]; mean): 20 nM
- 14(15)-EpETE concentration ([2]; mean): 3.3 nM
- 14(15)-EpETrE concentration ([2]; mean): 44^* nM
- 14,15-DiHETE concentration ([2]; mean): 8.6 nM
- 14,15-DiHETrE concentration ([2]; mean): 62 nM
- 14-HDHA concentration ([2]; mean): 97 nM
- 15(16)-EpODE concentration ([2]; mean): 27 nM
- 15(S)-HETrE concentration ([2]; mean): 14 nM
- 15,16-DiHODE concentration ([2]; mean): 63 nM
- 15-HEPE concentration ([2]; mean): 4.0 nM
- 15-HETE concentration ([2]; mean): 40 nM
- 15-oxo-ETE concentration ([2]; mean): 5.8 nM
- 16(17)-EpDPE concentration ([2]; mean): 27^* nM
- 16,17-DiHDPE concentration ([2]; mean): 35 nM
- 16-HDHA concentration ([2]; mean): 8.1^* nM
- 17(18)-EpETE concentration ([2]; mean): 4.6 nM
- 17,18-DiHETE concentration ([2]; mean): 19 nM
- 17-HDHA concentration ([2]; mean): 25 nM
- 18-HEPE concentration ([2]; mean): 4.6 nM
- 19(20)-EpDPE concentration ([2]; mean): 40^* nM
- 19,20-DiHDPE concentration ([2]; mean): 170 nM
- 20-HDHA concentration ([2]; mean): 27^* nM
- 20-HEPE concentration ([2]; mean): 22 nM
- 20-HETE concentration ([2]; mean): 6.3 nM
- EKODE concentration ([2]; mean): 40 nM
- PGD1 concentration ([2]; mean): 2.3 nM
- PGD2 concentration ([2]; mean): 42 nM
- PGE1 concentration ([2]; mean): 3.7 nM
- PGE2 concentration ([2]; mean): 21 nM
- PGF1α concentration ([2]; mean): 6.9 nM
- TXB2 concentration ([2]; mean): 31 nM
- TxB3 concentration ([2]; mean): 1.2 nM
- dihomo-PGF2α concentration ([2]; mean): 5.3 nM
- PGF2α concentration ([2]; mean (first listing, r6)): 57 nM
- PGF2α concentration ([2]; mean (second listing, r9)): 57 nM
- PGE2 formation / levels, RAW 264.7 cells [3]: reduced PGE2 formation
